Consider 3 compounds from paper PMC9186491, “Novel Small Molecule Tyrosine Kinase 2 Pseudokinase Ligands Block Cytokine-Induced TYK2-Mediated Signaling Pathways” (Frontiers in Immunology, 2022).

Converted amounts (≈) assume the structure as drawn. “And” between values parts separate entries of the source, which are not always exact repeats. Equal entries are not always repeated. Where two headings read alike, the source gives them in different places.

The Kd is the equilibrium constant for the complex coming apart. As a reminder, the half-life is how long it takes for the measured level to halve. Lower therefore signals fast loss. What is called fraction unbound is free concentration divided by total concentration. Lower therefore signals little free substance. Usually IC50 stands for the concentration needed to halve the response being measured. The term solubility denotes the dissolved amount per volume that the medium holds.

Data set [1] has as its target T1, TYK2 JH1 kinase domain (Homo sapiens, UniProt P29597).
T1 construct: purchased Eurofins DiscoverX Corporation (contract assay)
T1 sequence (P29597 897-1176 limits assumed): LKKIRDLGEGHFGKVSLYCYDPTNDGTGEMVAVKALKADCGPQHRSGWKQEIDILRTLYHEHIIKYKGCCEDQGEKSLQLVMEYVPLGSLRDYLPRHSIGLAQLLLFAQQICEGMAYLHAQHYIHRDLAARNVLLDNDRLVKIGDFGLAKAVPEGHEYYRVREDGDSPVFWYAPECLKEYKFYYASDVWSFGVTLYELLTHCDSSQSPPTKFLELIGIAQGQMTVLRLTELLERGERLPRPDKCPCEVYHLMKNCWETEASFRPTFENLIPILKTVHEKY
Briefly: KdELECT competition binding assay, TYK2 JH1. To be noted: isolated TYK2 JH1 domain. The protocol: (§1) The KdELECT competition assays were performed to test the binding affinity of compounds to the JH1 kinase region or JH2 pseudokinase region in TYK2 or JAK by ligand competition with JH1 or JH2 protein segments. The assay was carried out at Eurofins DiscoverX Corporation following the established standard protocol (DiscoverX, San Diego, CA). In this assay, compounds that bind to the kinase or pseudokinase protein regions prevent the protein binding to the immobilized ligand and reduce the amount of kinase matter captured on the solid surface. […] Dissociation constants (Kds) for test compound-kinase interactions are calculated by measuring the amount of kinase captured on the solid support as a function of the test compound concentration. […] The ligated beads were blocked with excess biotin and washed with blocking buffer to remove unbound ligand and to reduce nonspecific binding. […] All reactions were performed in polypropylene 384-well plates with a final volume of 20 μL. […] The beads were then re-suspended in the elution buffer and incubated at room temperature with shaking for 30 minutes. The kinase concentration in the eluant was measured by qPCR. Two replicates were performed and averaged to obtain the Kd measurement.

Data set [2] can be described thus: LM T1/2, R. It counts as in vitro ADME. To be noted: rat, liver microsomes. In general terms: Microsomes from liver hold many membrane-bound enzymes, among them those of drug oxidation.
Data set [3] has as its target T2, JAK2 JH1 kinase domain (Homo sapiens, UniProt O60674).
T2 construct: purchased Eurofins DiscoverX Corporation (contract assay)
The data set is described as follows: KdELECT competition binding assay, JAK2 JH1. To be noted: read-out: JAK Binding Selectivity (Kd) Catalytical Domain (JH1) JAK2. The protocol: as §1

Data set [4] can be described thus: PPB, H. To be noted: human, plasma. Format: in vitro ADME.
Data set [5] deals with CYP450 2C19 (Homo sapiens, UniProt P33261). Briefly: CYP450 inhibition, 2C19. It counts as in vitro ADME.
Sequence of CYP450 2C19 (P33261 whole entry): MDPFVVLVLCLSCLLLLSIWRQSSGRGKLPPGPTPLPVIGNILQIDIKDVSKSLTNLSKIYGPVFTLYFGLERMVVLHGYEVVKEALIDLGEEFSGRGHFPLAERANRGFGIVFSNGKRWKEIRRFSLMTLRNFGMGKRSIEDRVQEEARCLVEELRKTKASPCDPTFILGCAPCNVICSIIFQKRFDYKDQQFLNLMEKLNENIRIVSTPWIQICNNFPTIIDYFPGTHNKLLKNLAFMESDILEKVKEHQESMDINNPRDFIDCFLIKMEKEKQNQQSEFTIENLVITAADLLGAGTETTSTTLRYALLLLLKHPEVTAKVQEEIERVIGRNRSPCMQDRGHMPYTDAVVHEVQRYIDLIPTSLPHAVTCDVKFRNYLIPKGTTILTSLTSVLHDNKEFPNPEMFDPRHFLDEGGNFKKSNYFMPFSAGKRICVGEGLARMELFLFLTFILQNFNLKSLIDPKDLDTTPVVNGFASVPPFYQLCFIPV
Data set [6] is described as follows: PPB, R. Format: in vitro ADME. To be noted: rat, plasma.
The nature of data set [7]: PPB, Mk. Format: in vitro ADME. To be noted: monkey, plasma.
Data set [8] concerns the target T3, CYP450 1A2 (Homo sapiens, UniProt P05177).
T3 sequence (P05177 1-516): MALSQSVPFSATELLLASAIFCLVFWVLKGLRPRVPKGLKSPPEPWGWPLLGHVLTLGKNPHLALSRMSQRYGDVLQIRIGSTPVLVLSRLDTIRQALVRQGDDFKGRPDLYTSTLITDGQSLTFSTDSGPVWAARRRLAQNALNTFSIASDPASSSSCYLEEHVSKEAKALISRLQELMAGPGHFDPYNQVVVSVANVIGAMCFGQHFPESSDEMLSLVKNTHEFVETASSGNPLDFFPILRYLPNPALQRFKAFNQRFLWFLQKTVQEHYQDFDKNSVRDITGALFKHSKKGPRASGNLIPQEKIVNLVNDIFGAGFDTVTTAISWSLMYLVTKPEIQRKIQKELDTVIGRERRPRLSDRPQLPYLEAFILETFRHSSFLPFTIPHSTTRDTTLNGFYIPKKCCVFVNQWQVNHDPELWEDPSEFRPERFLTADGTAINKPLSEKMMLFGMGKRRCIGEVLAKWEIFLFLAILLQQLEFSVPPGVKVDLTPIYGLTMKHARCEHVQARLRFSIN
Briefly: CYP450 inhibition, 1A2. Format: in vitro ADME.

Data set [9] in a line: Solubility (PBS/Fas/Fes). It counts as physicochemical.
For data set [10], the target named is T4, JAK1 JH2 pseudokinase domain (Homo sapiens, UniProt P23458).
T4 construct: purchased Eurofins DiscoverX Corporation (contract assay)
T4 sequence (P23458 583-855 limits assumed): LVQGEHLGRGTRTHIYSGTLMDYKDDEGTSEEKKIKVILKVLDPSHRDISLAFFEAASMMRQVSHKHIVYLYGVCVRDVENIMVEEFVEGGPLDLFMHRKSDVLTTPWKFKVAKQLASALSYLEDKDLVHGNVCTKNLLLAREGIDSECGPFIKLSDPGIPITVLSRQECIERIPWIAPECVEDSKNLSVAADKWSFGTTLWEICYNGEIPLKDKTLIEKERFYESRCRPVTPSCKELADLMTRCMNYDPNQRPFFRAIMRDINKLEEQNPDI
Briefly: KdELECT competition binding assay, JAK1 JH2. To be noted: read-out: JAK Binding Selectivity (Kd) Pseudokinase Domain (JH2) JAK1. The protocol: as §1

For data set [11], the system named is IFNα-induced TYK2/phosphoSTAT1 (Tyr701) in Kit225 T cells. The data set is described as follows: Kit225 T cell assay for IFNα-induced TYK2/phosphoSTAT1 activity. It counts as cell-based, human. To be noted: Homo sapiens; Kit225 cells, 80 ng/mL IFNα, AlphaLISA; read-out: IC50 IFNα-induced-STAT1 Phosphorylation. The protocol:
The cells were treated with serially diluted compounds for 1 hour and stimulated with 80 ng/mL human recombinant IFNα (R&D Systems) for 15 minutes. The treated cells were then lysed and cellular phosphorylated-STAT1 (Tyr701) levels were measured by AlphaLISA (PerkinElmer, Cat#ALSU-PST1) according to the manufacturer’s instructions.
In general terms: Bead proximity is the source of the signal in Alpha formats.

The nature of data set [12]: PPB, D. To be noted: dog, plasma. Format: in vitro ADME.
The target in data set [13] is T5, JAK2 JH2 pseudokinase domain (Homo sapiens, UniProt O60674).
T5 construct: purchased Eurofins DiscoverX Corporation (contract assay)
T5 sequence (O60674 545-809 limits assumed): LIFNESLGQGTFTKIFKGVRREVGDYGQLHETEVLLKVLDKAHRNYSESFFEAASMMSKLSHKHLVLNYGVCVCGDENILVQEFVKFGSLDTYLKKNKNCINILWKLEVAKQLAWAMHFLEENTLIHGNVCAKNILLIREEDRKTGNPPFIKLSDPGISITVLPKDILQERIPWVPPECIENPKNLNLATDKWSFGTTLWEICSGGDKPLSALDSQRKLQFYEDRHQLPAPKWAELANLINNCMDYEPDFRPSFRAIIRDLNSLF
Briefly: KdELECT competition binding assay, JAK2 JH2. To be noted: read-out: JAK Binding Selectivity (Kd) Pseudokinase Domain (JH2) JAK2. The protocol: as §1

For data set [14], the target named is CYP450 2C9 (Homo sapiens, UniProt P11712). Briefly: CYP450 inhibition, 2C9. It counts as in vitro ADME.
Sequence of CYP450 2C9 (P11712 whole entry): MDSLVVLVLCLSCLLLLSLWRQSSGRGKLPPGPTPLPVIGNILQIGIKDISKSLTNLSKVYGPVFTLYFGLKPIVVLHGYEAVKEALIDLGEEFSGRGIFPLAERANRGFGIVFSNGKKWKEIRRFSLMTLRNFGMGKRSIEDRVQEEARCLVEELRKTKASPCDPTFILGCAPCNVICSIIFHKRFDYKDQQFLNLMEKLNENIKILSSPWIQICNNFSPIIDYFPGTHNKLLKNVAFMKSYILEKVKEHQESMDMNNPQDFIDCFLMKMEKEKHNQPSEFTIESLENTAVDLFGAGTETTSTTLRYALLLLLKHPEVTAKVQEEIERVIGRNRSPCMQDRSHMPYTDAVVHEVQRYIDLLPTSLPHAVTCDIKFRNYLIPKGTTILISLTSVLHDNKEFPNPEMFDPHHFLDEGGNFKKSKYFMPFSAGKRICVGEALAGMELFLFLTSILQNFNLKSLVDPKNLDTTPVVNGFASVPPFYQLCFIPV
Data set [15] in a line: LM T1/2, M. It counts as in vitro ADME. To be noted: mouse, liver microsomes.
The nature of data set [16]: PPB, M. Format: in vitro ADME. To be noted: mouse, plasma.
In data set [17] the target is T6, TYK2 JH2 pseudokinase domain (Homo sapiens, UniProt P29597).
T6 construct: purchased Eurofins DiscoverX Corporation (contract assay)
T6 sequence (P29597 589-875 limits assumed): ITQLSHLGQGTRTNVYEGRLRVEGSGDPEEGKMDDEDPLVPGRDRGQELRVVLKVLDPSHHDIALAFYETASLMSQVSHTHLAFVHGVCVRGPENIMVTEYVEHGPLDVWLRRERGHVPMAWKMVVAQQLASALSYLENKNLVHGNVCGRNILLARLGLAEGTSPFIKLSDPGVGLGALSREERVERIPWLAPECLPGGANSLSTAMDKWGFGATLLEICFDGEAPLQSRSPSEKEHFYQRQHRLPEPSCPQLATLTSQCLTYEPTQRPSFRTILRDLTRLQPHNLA
Briefly: KdELECT competition binding assay, TYK2 JH2. To be noted: isolated TYK2 JH2 domain. The protocol:
as §1

In data set [18] the test system is IL23-induced TYK2/phosphoSTAT3 (Tyr705) in Kit225 T cells. The data set is described as follows: Kit225 T cell assay for IL23-induced TYK2/phosphoSTAT3 activity. Format: cell-based, human. To be noted: Homo sapiens; Kit225 cells, 100 ng/mL IL23, AlphaLISA; read-out: IC50 IL23-induced-STAT3 Phosphorylation. As to the method:
The cells were treated with serially diluted compounds for 1 hour and stimulated with 100 ng/mL human recombinant IL23 (R&D Systems) for 20 minutes. The treated cells were then lysed and cellular phosphorylated-STAT3 (Tyr705) levels were measured by AlphaLISA (PerkinElmer, Cat# ALSU-PST3) according to the manufacturer’s instructions.

Data set [19] addresses T7, JAK3 JH1 kinase domain (Homo sapiens, UniProt P52333).
T7 construct: purchased Eurofins DiscoverX Corporation (contract assay)
Briefly: KdELECT competition binding assay, JAK3 JH1. To be noted: read-out: JAK Binding Selectivity (Kd) Catalytical Domain (JH1) JAK3. The protocol: as §1

Where [20] appears, read: FaSSIF, read-out: Solubility, Fas.
Setting [21] is: FeSSIF (Fes [sic]), fessif, read-out: Solubility, Fes.
The mark [22] stands for this setting: PBS, aqueous buffer, read-out: Solubility, PBS.

T7 sequence (P52333 822-1111 limits assumed): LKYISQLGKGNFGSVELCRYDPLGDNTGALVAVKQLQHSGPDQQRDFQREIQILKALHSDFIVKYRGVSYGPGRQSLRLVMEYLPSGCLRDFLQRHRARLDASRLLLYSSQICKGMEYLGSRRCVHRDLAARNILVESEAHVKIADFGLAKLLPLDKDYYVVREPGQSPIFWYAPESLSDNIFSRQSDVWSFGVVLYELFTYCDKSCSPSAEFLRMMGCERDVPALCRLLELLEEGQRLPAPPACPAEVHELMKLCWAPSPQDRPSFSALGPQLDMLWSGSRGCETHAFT
T2 sequence (O60674 849-1124 limits assumed): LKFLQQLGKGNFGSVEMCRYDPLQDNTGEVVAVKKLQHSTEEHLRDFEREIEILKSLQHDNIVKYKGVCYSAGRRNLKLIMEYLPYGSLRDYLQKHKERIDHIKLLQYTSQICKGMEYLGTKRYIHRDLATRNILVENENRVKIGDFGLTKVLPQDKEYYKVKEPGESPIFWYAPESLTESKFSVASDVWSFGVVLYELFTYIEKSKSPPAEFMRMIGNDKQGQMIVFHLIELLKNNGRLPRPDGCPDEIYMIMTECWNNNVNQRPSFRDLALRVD

For the compound `CNC(=O)c1nnc(NC(=O)C2CC2)c2[nH]c(-c3ccc(N)cc3OC)cc12` [SHR2396], the Kd in data set [1] was 300 nM; in [3], over 20000 nM; in [10], 0.52 ± 0.4 nM; in [13], 190 ± 99 nM; in [17] it was 0.029 nM and 0.019 nM; in data set [19], over 20000 nM. Also, the results for the half-life in [2] and in data set [15] were over 67 min and 31 min, respectively. The fraction unbound in data set [4] was 0.0258; in data set [6], 0.0474; in [7], 0.0351; in [12] it was 0.0434; in [16] it was 0.0292. The half-maximal inhibitory concentration (IC50) in data set [5] was over 30000 nM; in data set [8] it was over 30000 nM; in data set [11], 15 nM; in data set [14], over 30000 nM; in data set [18] it was 5.9 nM. Besides, the solubility in [9] (setting [20]) worked out at 8.6 µM (≈ 3.27 µg/mL); in [9] (setting [21]) it was 8.2 µM (≈ 3.12 µg/mL); in data set [9] (setting [22]), 0.34 µM (≈ 0.129 µg/mL).
As to `CNC(=O)c1nnc(NC(=O)N2CCC2)cc1Nc1cccc(-c2ncn(C)n2)c1OC` [SHR8751], the equilibrium dissociation constant (Kd) is over 20000 nM in data set [1]; 6500 ± 1700 nM in data set [3]; 3.7 ± 0.14 nM in data set [10]; 290 ± 99 nM in [13]; 0.032 nM in data set [17]; 3700 ± 70 nM in data set [19]. Also, the half-life in [2] is over 67 min; in data set [15], over 139 min. In addition, the unbound share (fraction unbound) in data set [4] turned out to be 0.402; in data set [6], 0.329; in data set [7] it was 0.281; in data set [12] it was 0.377; in [16], 0.35. Besides, the IC50 in data set [5] was over 30000 nM; in data set [8] it was over 30000 nM; in data set [11], 37 nM; in data set [14], over 30000 nM; in data set [18], 27 nM. The solubility in [9] (setting [20]) is 60.7 µM (≈ 26.6 µg/mL); in [9] (setting [21]) it was 60.9 µM (≈ 26.6 µg/mL); in data set [9] (setting [22]), 17.6 µM (≈ 7.7 µg/mL).
In the case of `[2H]C([2H])([2H])NC(=O)c1nnc(NC(=O)N2CCC2)cc1Nc1cccc(-c2ncn(C)n2)c1OC` [SHR9332], the equilibrium dissociation constant (Kd) in [1] was over 20000 nM; in [3], 2000 nM; in data set [10], 1.8 nM; in data set [13], 220 nM; in data set [17], 0.04 nM; in data set [19], 4500 nM. Besides, the half-life in data set [2] was over 67 min; in [15], 49.8 min. Moreover, the fraction unbound in data set [4] came to 0.274; in [6] it was 0.254; in data set [7], 0.231; in data set [12], 0.325; in [16], 0.249. For the same compound, the IC50 in data set [5] was over 30000 nM; in [8] it was over 30000 nM; in [11] it was 76 nM; in data set [14], over 30000 nM; in data set [18] it was 79 nM. In addition, the values for the solubility in data set [9] (setting [20]), in [9] (setting [21]) and in data set [9] (setting [22]) were 71.4 µM (≈ 31.5 µg/mL), 108 µM (≈ 47.6 µg/mL) and 25.6 µM (≈ 11.3 µg/mL), respectively.
